Results published in the NIST ThermoML archive (doi:10.1021/je100151b).

Assays:
[1] = refractive index (Na D-line) (dimensionless); mn = molality of the nth substance listed, in mol/kg; details: 101 kPa, Liquid, Standard Abbe refractometry, m1 = 0.25
[2] = mn = molality of the nth substance listed, in mol/kg; details: 101 kPa, Liquid, m1 = 0.25

[Cl][Fe][Cl] [ferrous chloride] + O
Details	mass density, [2] [kg/m3]	refractive index, [1]
288.15 K	998.9	1.3375
293.15 K	998.2	1.3468
298.15 K	997	1.3559
303.15 K	996	1.3661
308.15 K	995	1.3768
313.15 K	994.5	1.3874
318.15 K	993.8	1.398
